Reference: patent publication US4025556A, “Quaternary ammonium-hydroxyaryl compounds” (Ciba-Geigy AG, priority 1967, dated 1977)

Columns and labels:
Assay type in all cases: cell-based
Escherichia coli = experiment: Minimal inhibitory concentration (MIC), gradient plate test, bacteriostasis; details: brain heart infusion agar, 24 hours at 37° C
Excerpt: (§1) Measuring the minimal inhibitory concentration (MIC) towards bacteria and fungi in the gradient plate test
(§2) The compounds of the formula (1) in suitable formulations (for example as solutions in dimethylsulphoxide) of certain concentrations are mixed with warm brain heart infusion agar (bacteria) and Mycophil-Agar (fungi). The liquid mixtures are poured over a solidified, wedge-shaped basic agar layer and likewise allowed to solidify.
(§3) The test organisms are then applied by means of a Pasteur pipette in lines at right angles to the gradient. After an incubation period of 24 hours at 37° C. (bacteria) and 72 hours at 30° C. (fungi) the length of the germs grown on the inoculation line is measured and expressed in parts per million of active substance.

Staphylococcus aureus [1] = experiment: as above; details: brain heart infusion agar, 24 hours at 37° C
Excerpt: as §1, §2, §3

Aspergillus niger [2] = experiment: Minimal inhibitory concentration (MIC), gradient plate test, fungistasis; details: Mycophil-Agar, 72 hours at 30° C
Excerpt: as §1, §2, §3

[3] = tested on: Trichophyton mentagrophytes; experiment: as above; details: Mycophil-Agar, 72 hours at 30° C
Excerpt: as §1, §2, §3

Staphylococcus aureus [4] = experiment: Minimal inhibitory concentration (MIC), dilution test, bacteriostasis; details: brain heart infusion broth, 48 hours at 37° C
Protocol: (§4) Measuring the minimal inhibitory concentration (MIC) against bacteria and fungi in the dilution test
(§5) The minimal inhibitory concentration (MIC) is measured by a test derived from standardized methods which makes available an approximation to absolute minimal inhibitory values of an active substance.
(§6) A solution of 0.4% and 0.12% strength each in dimethylsulphoxide is prepared with the active substances. 0.25 ml of each of these solutions is added to 9.75 ml of sterile brain heart infusion broth (bacteria) and beerwort solution (fungi) respectively. By continual dilution to 10 times the volume two series are obtained which are combined and thereby converted into the following continuous dilution series:
(§7) 100, 30, 10, 3, 1 . . . part per million of active substance.
(§8) The solutions are inoculated with the bacterium Staphylococcus aureus and with fungi Aspergillus niger and Rhizopus nigricans respectively. Then incubation is performed for 48 hours at 37° C. (bacteriostasis) with Staphylococcue aureus and for 72 hours at 30° C. (fungistasis)with the fungi.

Aspergillus niger [5] = experiment: Minimal inhibitory concentration (MIC), dilution test, fungistasis; details: beerwort solution, 72 hours at 30° C
Protocol: as §4, §5, §6, §7, §8

Rhizopus nigricans = experiment: as above; details: beerwort solution, 72 hours at 30° C
Protocol: as §4, §5, §6, §7, §8

Staphylococcus aureus [6] = experiment: Activity of impregnated fabrics against bacteria (agar plate, inhibitory zone and growth)
Protocol: (§9) Samples of C. 100 g each of cotton creton are impregnated on a padder with a 1% solution of one of the compounds of the formula (1) in isopropanol at 20° C and then squeezed to a weight increase of 100%.
(§10) Samples of 100 g each of wool cheviot were treated in an identical manner.
(§11) After having been dried at 30° to 40° C. the fabrics contain 1% of active substance referred to their own weight.
To test the activity against bacteria round blanks of 10 mm diameter of the impregnated fabrics, one half of which untreated and the other after having been watered for 24 hours at 29° C., are placed on brain infusion agar plates previously inoculated with Staphylococcus aureus. The plates are then incubated for 24 hours at 37° C.
(§12) The evaluation extends, on one hand, to the inhibitory zones (IZ in mm) around the blanks and, on the other hand, on the growth (G in %) detected under a microscope underneath and/or on the fabric: […]

Aspergillus niger [7] = experiment: Activity of impregnated fabrics against fungi (agar plate, inhibitory zone and growth)
Protocol: as §9, §10, §11
To test the activity against fungi round blanks of 25 mm diameter are placed on beerwort agar plates and then inoculated with Aspergillus niger, and the plates are then incubated for 72 hours at 30° C.
as §12

Staphylococcus aureus [8] = experiment: Antibacterial properties of impregnated paper (agar plate, inhibitory zone and growth); details: paper with 1% of active substance, 24 hours at 37° C
Excerpt: (§13) Crude paper, which consists of 90% of bleached sulphite cellulose and 10% of birch pulp, is impregnated in a sizing press with a 2.5% solution of the compound of the formula (11) in methanol+water 2:1 to a weight increase of 40%.
(§14) The dried paper contains 1% of active substance referred to its original weight.
To test its antibacterial properties round blanks of 10 mm diameter of the impregnated paper are placed on brain heart infusion agar plates previously inoculated with Staphylococcus aureus, and the plates are then incubated for 24 hours at 37° C.
(§15) The evaluation extends, on one hand, to the inhibitory zone (IZ in mm) around the paper blanks and, on the other hand, to the microscopically discernible growth (G in %) underneath and/or on the blanks: […]

Aspergillus niger [9] = experiment: Fungicidal activity of impregnated paper (agar plate, inhibitory zone and growth); details: paper with 1% of active substance, 72 hours at 30° C
Protocol: as §13, §14
For testing its fungicidal activity round blanks of 25 mm diameter are placed on Mycophil-Agar plates and inoculated with Aspergillus niger, and the plates are incubated for 72 hours at 30° C.
as §15

[10] = cotton with 1% of active substance, untreated
[11] = wool with 1% of active substance, untreated

| Compound | Minimal inhibitory concentration, bacteriostasis, Escherichia coli (Escherichia coli) | Minimal inhibitory concentration, bacteriostasis, Staphylococcus aureus (Staphylococcus aureus [1]) | Minimal inhibitory concentration, fungistasis, Aspergillus niger (Aspergillus niger [2]) | Minimal inhibitory concentration, fungistasis, Trichophyton mentagrophytes [3] | Inhibitory values in ppm in bacteriostasis, Staphylococcus aureus (MIC) (Staphylococcus aureus [4]) | Inhibitory values in ppm in fungistasis, Aspergillus niger (MIC) (Aspergillus niger [5]) | Inhibitory values in ppm in fungistasis, Rhizopus nigricans (MIC) (Rhizopus nigricans) | inhibitory zone (IZ) (Staphylococcus aureus [6]; [10]) | inhibitory zone (IZ) (Staphylococcus aureus [6]; cotton with 1% of active substance, watered 24 hours at 29° C) | inhibitory zone (IZ) (Staphylococcus aureus [6]; [11]) | inhibitory zone (IZ) (Staphylococcus aureus [6]; wool with 1% of active substance, watered 24 hours at 29° C) | inhibitory zone (IZ) (Aspergillus niger [7]; [10]) | inhibitory zone (IZ) (Aspergillus niger [7]; cotton with 1% of active substance, watered) | inhibitory zone (IZ) (Aspergillus niger [7]; [11]) | inhibitory zone (IZ) (Aspergillus niger [7]; wool with 1% of active substance, watered) | inhibitory zone (IZ) (Staphylococcus aureus [8]) | inhibitory zone (IZ) (Aspergillus niger [9]) |
| --- | --- | --- | --- | --- | --- | --- | --- | --- | --- | --- | --- | --- | --- | --- | --- | --- | --- |
| CCCCCCCCCCCC[N+](CCO)(CCO)Cc1ccccc1.[O-]c1cccc2cccnc12 [L] | 20 ppm | 3 ppm | 6 ppm | 6 ppm | – | – | – | – | – | – | – | – | – | – | – | – | – |
| benzyl-bis-(2-hydroxyethyl)-dodecyl ammonium pentachlorophenolate | – | – | – | – | 10 ppm | 10 ppm | 10 ppm | 6 mm | 5 mm | 6 mm | 3 mm | 7 mm | 4 mm | 0 mm | 0 mm | 2.5 mm | 1 mm |
